Values joined by “and” are separate entries in the source; they are usually repeats but may differ in a detail not shown here. Equal entries are not always repeated. “Also recorded” adds a separate entry of the source.
What was measured:
Type in all cases: in vivo, rat
[1] = Assay A: angiotensin II infusion model, systolic blood pressure by tail-cuff; settings: Wistar rats, 1% NaCl to drink, angiotensin II 25 ng/min sc, 4 weeks; eplerenone 100 mpk; aldosterone given to adrenalectomized, dexamethasone-treated rats
[2] = Assay B: aldosterone infusion model, heart histology, vascular inflammatory lesions and myocardial injury; settings: aldosterone-infused, saline-drinking, uni-nephrectomized Sprague Dawley rats, 4 weeks; eplerenone 100 mpk p.o; 0.6% KCl in the drinking fluid
Procedure: Assay B: In Vivo Aldosterone Infusion Model
Male Sprague Dawley rats (n=39; BW=250 g)
→ Hearts were harvested and divided by half through a transverse section at the mid-ventricles: The upper half was stored into formalin. The bottom part was snap-frozen in liquid nitrogen for biochemical analysis.
Hearts were stained with hematoxylin&eosin and the collagen specific dye picro-sirius red and were analyzed for determination of interstitial collagen volume fraction and morphologic abnormalities (i.e. necrosis, vascular injury).

COX-2 = experiment: Assay B: COX-2 mRNA by quantitative RT-PCR (Taqman)
Procedure: Assay B: In Vivo Aldosterone Infusion Model Determination of osteopontin and COX-2 was performed by quantitative RT-PCR (Taqman). Osteopontin was also identified in the heart by immunohistochemistry.

[3] = test system: Atrial natriuretic factor (ANP); experiment: Assay C: ANP mRNA in left ventricle, TaqMan; settings: aldosterone+salt alone or with eplerenone 100 mg/kg/day; 7, 14, 30 days
Procedure: The procedure of Assay B was expanded upon in a further study. […] Myocardial tissue from animals in each treatment group was examined after 7, 14, or 30 days of treatment.
Potassium chloride supplementation was added to the saline solution in order to prevent the potential hypokalemia associated with aldosterone excess.
Treatment At the time of the surgery, an Alzet 2002 osmotic minipump (Alza Corp., Palo Alto, Calif.) containing either vehicle (9% ethanol/87% propylene glycol/4% dH2O) or 1.0 mg/mL d-aldosterone (Sigma Chemical, St. Louis, Mo.) was inserted subcutaneously at the nape of the neck. Aldosterone was administered at a dose of 0.75 µg/hour. […]
The fluorogenic 5′-nuclease assay (TaqMan PCR) using Applied Biosystems' 7700 Sequence Detection System (Applied Biosystems, Foster City, Calif.) allowed for real time detection/quantitation of a specific gene by monitoring the increase in fluorescence of a gene-specific, dye-labeled oligonucleotide probe. […] When the probe was annealed to the target gene, fluorescence of 6FAM was prevented by the close proximity of TAMRA. The exonuclease activity of Taq polymerase released the dyes from the oligonucleotide probe by displacing the probe from the target sequence resulting in fluorescence excitation in direct proportion to the amount of target message present. […]

[4] = Assay C: myocardial hydroxyproline colorimetric assay; settings: 7 days of treatment; myocardium; aldosterone + salt alone or with eplerenone 100 mg/kg/day; individual rats and group Mean
Procedure: The procedure of Assay B was expanded upon in a further study. […] Myocardial tissue from animals in each treatment group was examined after 7, 14, or 30 days of treatment. […] Lesions were preceded by the expression and progressive upregulation of proinflammatory molecules. […] Prior to surgery the animals were individually weighed and placed in one of the following groups: […] Potassium chloride supplementation was added to the saline solution in order to prevent the potential hypokalemia associated with aldosterone excess. Treatment At the time of the surgery, an Alzet 2002 osmotic minipump (Alza Corp., Palo Alto, Calif.) containing either vehicle (9% ethanol/87% propylene glycol/4% dH2O) or 1.0 mg/mL d-aldosterone (Sigma Chemical, St. Louis, Mo.) was inserted subcutaneously at the nape of the neck. Aldosterone was administered at a dose of 0.75 µg/hour. […] Animals were sacrificed from each group (n=8-13) after 7, 14, or 30 days of treatment. Myocardial hydroxyproline concentration was measured by a colorimetric assay that quantifies the reaction between oxidized hydroxyproline, and p-dimethylaminobenzaldehyde as described previously (4). […] Samples were incubated at 60° C. for 30 min, cooled to room temperature, and absorbance was monitored at 558 nm. Hydroxyproline content was quantitated from a freshly prepared standard curve of trans-4-hydroxy-L-proline (Sigma, St. Louis, Mo.). […]

[5] = Urinary protein excretion in angiotensin II infused, captopril treated stroke prone spontaneously hypertensive rats; settings: captopril treated stroke prone spontaneously hypertensive rats (FIG. 35)
[6] = Histopathological scores for renal injury in angiotensin II infused, captopril treated stroke prone spontaneously hypertensive rats; settings: captopril treated stroke prone spontaneously hypertensive rats (FIG. 36)

In the case of C[C@]12CCC(=O)C=C1CC[C@@H]1[C@@H]2[C@@H](O)C[C@]2(C=O)[C@@H](C(=O)CO)CC[C@@H]12 [aldosterone], the Systolic blood pressure [1] is reported as “increased blood pressure”, the “Vascular inflammatory lesions / myocardial injury (hematoxylin-eosin)” value [2] is reported as “severe vascular inflammatory lesions” and the “Increase of COX-2 mRNA expression vs control” value (COX-2; aldosterone/salt+vehicle treatment) is reported as 3 fold. The “COX-2 relative mRNA expression in the heart” value (COX-2; aldosterone/salt-treated rats, 4 weeks, vehicle or eplerenone 100 mpk p.o, control 1.2±0.12) was 3.7±0.46 and the “Atrial natiuretic peptide (ANP) mRNA levels” value [3] was “Significant elevations”.
In the case of COC(=O)[C@@H]1CC2=CC(=O)CC[C@]2(C)[C@@]23O[C@@H]2C[C@@]2(C)[C@@H](CC[C@@]24CCC(=O)O4)[C@H]13 [eplerenone], the Systolic blood pressure [1] is reported as “Neither eplerenone nor adrenalectomy reduced blood pressure”, the “Vascular inflammatory lesions / myocardial injury (hematoxylin-eosin)” value [2] is reported as “completely prevented the vascular inflammatory changes; also recorded: prevention by eplerenone of myocardial injury” and the “Atrial natiuretic peptide (ANP) mRNA levels” value [3] is reported as “significantly reduced by eplerenone after 30 days of treatment but not after 14 days”. The Hydroxyproline [4] was 4.08 µg/mg and 2.41 µg/mg, the Urinary protein excretion [5] was “inhibition of increased urinary protein excretion” and the “Histopathological scores for renal injury” value [6] was “reduction in histopathological scores for renal injury”.

Source: patent US20040037806A1, “Aldosterone blocker therapy to prevent or treat inflammation-related disorders” (Pharmacia Corporation, priority 2002, published 2004)
